Source: ChEMBL document CHEMBL5316300, “Discovery of TP0597850: A Selective, Chemically Stable, and Slow Tight-Binding Matrix Metalloproteinase-2 Inhibitor with a Phenylbenzamide-Pentapeptide Hybrid Scaffold” (J Med Chem, 2023)

How the values were obtained:
Collagenase 3 = Collagenase 3 (Homo sapiens, UniProt P45452); experiment: Inhibition of human recombinant MMP13 using MOCAc-Lys-Pro-Leu-Gly-Leu-A2pr(Dnp)-Ala-Arg-N2 as substrate preincubated for 15 mins followed by substrate addition and measured after 120 mins by fluorescence based assay
[1] = biological target: T1, MMP-2/MMP-13 (Homo sapiens) (UniProt P08253+P45452); experiment: Selectivity ratio of IC50 for recombinant human MMP13 to IC50 for recombinant human MMP2; assay type: protein assay
[2] = biological target: T1, MMP-2/MMP-13 (Homo sapiens); experiment: Selectivity ratio of Ki for recombinant human MMP13 to Ki for recombinant human MMP2; assay type: protein assay
[3] = biological target: MMP-2/MMP-9 (Homo sapiens) (UniProt P08253+P14780); experiment: Selectivity ratio of Ki for recombinant human MMP9 to Ki for recombinant human MMP2; assay type: protein assay
Homo sapiens [4] = species on record: Homo sapiens; experiment: Selectivity ratio of Ki for recombinant human MMP8 to Ki for recombinant human MMP2
Homo sapiens [5] = species on record: Homo sapiens; experiment: Selectivity ratio of IC50 for recombinant human MMP12 to IC50 for recombinant human MMP2
Neutrophil collagenase = Neutrophil collagenase (Homo sapiens, UniProt P22894); experiment: Inhibition of human recombinant MMP8 using MOCAc-Lys-Pro-Leu-Gly-Leu-A2pr(Dnp)-Ala-Arg-N2 as substrate preincubated for 15 mins followed by substrate addition and measured after 120 mins by fluorescence based assay
[6] = biological target: Matrix metalloproteinase-14 (Homo sapiens, UniProt P50281); experiment: Inhibition of human recombinant MMP14 using MOCAc-Lys-Pro-Leu-Gly-Leu-A2pr(Dnp)-Ala-Arg-N2 as substrate preincubated for 15 mins followed by substrate addition and measured after 120 mins by fluorescence based assay
[7] = biological target: T2, 72 kDa type IV collagenase (Homo sapiens, UniProt P08253); experiment: Inhibition of recombinant human MMP2 using MOCAc-Lys-Pro-Leu-Gly-Leu-A2pr(Dnp)-Ala-Arg-N2 as substrate preincubated for 10 to 15 mins followed by substrate addition and measured after 60 to 120 mins by fluorescence based assay
Target sequence in this assay (P08253 whole entry): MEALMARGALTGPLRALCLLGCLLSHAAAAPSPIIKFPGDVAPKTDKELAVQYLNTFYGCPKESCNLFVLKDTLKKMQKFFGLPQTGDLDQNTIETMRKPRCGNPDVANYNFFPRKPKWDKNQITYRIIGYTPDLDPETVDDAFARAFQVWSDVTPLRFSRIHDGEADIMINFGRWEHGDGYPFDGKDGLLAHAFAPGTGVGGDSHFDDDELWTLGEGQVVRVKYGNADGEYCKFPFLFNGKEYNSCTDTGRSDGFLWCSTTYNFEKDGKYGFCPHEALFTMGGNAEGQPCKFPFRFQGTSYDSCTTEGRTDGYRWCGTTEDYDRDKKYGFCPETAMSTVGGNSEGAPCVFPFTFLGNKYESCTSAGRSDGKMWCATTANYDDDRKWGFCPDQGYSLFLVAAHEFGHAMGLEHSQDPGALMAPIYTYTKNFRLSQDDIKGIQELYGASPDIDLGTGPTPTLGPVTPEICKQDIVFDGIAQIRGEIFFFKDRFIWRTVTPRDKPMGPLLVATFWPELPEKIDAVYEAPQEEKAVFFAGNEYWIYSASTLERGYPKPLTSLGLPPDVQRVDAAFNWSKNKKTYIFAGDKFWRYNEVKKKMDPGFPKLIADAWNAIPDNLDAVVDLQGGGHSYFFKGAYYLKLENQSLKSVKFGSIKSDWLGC

Homo sapiens [8] = species on record: Homo sapiens; experiment: Selectivity ratio of Ki for recombinant human MMP12 to Ki for recombinant human MMP2
[9] = Chemical stability of the compound in phosphate buffer at pH 4 assessed as residual rate incubated for 2 weeks by HPLC analysis; assay type: physicochemical; conditions: read-out: Stability
[10] = biological target: MMP-2/MMP-14 (Homo sapiens) (UniProt P50281+P08253); experiment: Selectivity ratio of Ki for recombinant human MMP14 to Ki for recombinant human MMP2; assay type: protein assay
Matrilysin = biological target: T3, Matrilysin (Homo sapiens, UniProt P09237); experiment: Inhibition of human recombinant MMP7 using MOCAc-Lys-Pro-Leu-Gly-Leu-A2pr(Dnp)-Ala-Arg-N2 as substrate preincubated for 15 mins followed by substrate addition and measured after 120 mins by fluorescence based assay
T3 sequence (P09237 whole entry): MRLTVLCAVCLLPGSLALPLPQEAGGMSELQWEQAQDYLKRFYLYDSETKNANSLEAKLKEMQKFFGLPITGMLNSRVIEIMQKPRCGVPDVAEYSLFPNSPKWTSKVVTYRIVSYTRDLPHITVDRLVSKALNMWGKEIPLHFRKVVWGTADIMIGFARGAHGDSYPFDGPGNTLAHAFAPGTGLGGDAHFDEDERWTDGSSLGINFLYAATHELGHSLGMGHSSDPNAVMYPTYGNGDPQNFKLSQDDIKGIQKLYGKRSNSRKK

[11] = biological target: T4, Macrophage metalloelastase (Homo sapiens, UniProt P39900); experiment: Inhibition of human recombinant MMP12 using MOCAc-Lys-Pro-Leu-Gly-Leu-A2pr(Dnp)-Ala-Arg-N2 as substrate preincubated for 10 to 15 mins followed by substrate addition and measured after 60 to 120 mins by fluorescence based assay; conditions: read-out: IC50
[12] = biological target: T2, 72 kDa type IV collagenase; experiment: Binding affinity to human MMP2 assessed as dissociative half-life
Target sequence in this assay (P08253 110-660 limits assumed): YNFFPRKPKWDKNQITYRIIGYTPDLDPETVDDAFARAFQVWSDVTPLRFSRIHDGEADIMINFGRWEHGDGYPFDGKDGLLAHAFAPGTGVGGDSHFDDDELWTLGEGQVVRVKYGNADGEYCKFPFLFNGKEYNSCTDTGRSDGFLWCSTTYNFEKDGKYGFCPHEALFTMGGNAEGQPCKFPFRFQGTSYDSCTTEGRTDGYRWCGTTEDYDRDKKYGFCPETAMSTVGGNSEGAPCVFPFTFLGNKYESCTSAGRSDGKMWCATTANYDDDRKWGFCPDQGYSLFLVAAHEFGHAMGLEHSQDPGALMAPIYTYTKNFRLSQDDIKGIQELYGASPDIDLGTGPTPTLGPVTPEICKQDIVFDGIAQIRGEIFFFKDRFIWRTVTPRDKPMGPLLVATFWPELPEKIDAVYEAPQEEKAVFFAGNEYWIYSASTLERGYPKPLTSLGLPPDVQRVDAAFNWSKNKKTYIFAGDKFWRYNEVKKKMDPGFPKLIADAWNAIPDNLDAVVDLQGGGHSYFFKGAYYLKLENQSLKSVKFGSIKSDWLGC

Homo sapiens [13] = species on record: Homo sapiens; experiment: Selectivity ratio of Ki for recombinant human MMP3 to Ki for recombinant human MMP2
[14] = biological target: MMP-1/MMP-2 (Homo sapiens) (UniProt P08253+P03956); experiment: Selectivity ratio of Ki for recombinant human MMP1 to Ki for recombinant human MMP2; assay type: protein assay
[15] = biological target: T2, 72 kDa type IV collagenase; experiment: Inhibition of human recombinant MMP2 using MOCAc-Lys-Pro-Leu-Gly-Leu-A2pr(Dnp)-Ala-Arg-N2 as substrate preincubated for 15 mins followed by substrate addition and measured after 120 mins by fluorescence based assay
Target sequence in this assay (P08253 whole entry): as the sequence (P08253 whole entry) above

Interstitial collagenase = biological target: T5, Interstitial collagenase (Homo sapiens, UniProt P03956); experiment: Inhibition of human recombinant MMP1 using MOCAc-Lys-Pro-Leu-Gly-Leu-A2pr(Dnp)-Ala-Arg-N2 as substrate preincubated for 15 mins followed by substrate addition and measured after 120 mins by fluorescence based assay
T5 sequence (P03956 whole entry): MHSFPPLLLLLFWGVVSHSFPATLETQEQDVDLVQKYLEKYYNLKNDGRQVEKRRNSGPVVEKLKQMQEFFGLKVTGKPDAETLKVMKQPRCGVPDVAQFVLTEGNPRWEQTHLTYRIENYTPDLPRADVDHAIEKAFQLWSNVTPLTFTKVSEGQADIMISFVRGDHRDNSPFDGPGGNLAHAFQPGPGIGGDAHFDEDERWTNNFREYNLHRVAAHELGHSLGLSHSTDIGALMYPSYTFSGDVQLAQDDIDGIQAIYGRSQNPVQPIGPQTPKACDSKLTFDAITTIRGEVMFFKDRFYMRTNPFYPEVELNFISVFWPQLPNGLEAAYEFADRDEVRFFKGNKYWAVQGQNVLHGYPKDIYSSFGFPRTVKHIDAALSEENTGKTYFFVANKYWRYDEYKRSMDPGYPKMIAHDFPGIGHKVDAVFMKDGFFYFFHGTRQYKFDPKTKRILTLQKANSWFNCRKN

[16] = biological target: Matrix metalloproteinase-9 (Homo sapiens, UniProt P14780); experiment: Inhibition of human recombinant MMP9 using MOCAc-Lys-Pro-Leu-Gly-Leu-A2pr(Dnp)-Ala-Arg-N2 as substrate preincubated for 15 mins followed by substrate addition and measured after 120 mins by fluorescence based assay
[17] = Chemical stability of the compound in phosphate buffer at pH 7.4 assessed as residual rate incubated for 2 weeks by HPLC analysis; assay type: physicochemical; conditions: read-out: Stability
[18] = Metabolic stability in human serum assessed as parent compound remaining measured for 4 hrs; assay type: ADME, cell-free; conditions: read-out: Stability
Stromelysin-1 = Stromelysin-1 (Homo sapiens, UniProt P08254); experiment: Inhibition of human recombinant MMP3 using MOCAc-Lys-Pro-Leu-Gly-Leu-A2pr(Dnp)-Ala-Arg-N2 as substrate preincubated for 15 mins followed by substrate addition and measured after 120 mins by fluorescence based assay
[19] = biological target: T2, 72 kDa type IV collagenase; experiment: Inhibition of human recombinant MMP2 using MOCAc-Lys-Pro-Leu-Gly-Leu-A2pr(Dnp)-Ala-Arg-N2 as substrate preincubated for 5 mins followed by substrate addition and measured after 120 mins by fluorescence based assay
Target sequence in this assay (P08253 whole entry): as the sequence (P08253 whole entry) above

[20] = biological target: T4, Macrophage metalloelastase; experiment: Inhibition of human recombinant MMP12 using MOCAc-Lys-Pro-Leu-Gly-Leu-A2pr(Dnp)-Ala-Arg-N2 as substrate preincubated for 15 mins followed by substrate addition and measured after 120 mins by fluorescence based assay
[21] = Chemical stability of the compound in phosphate buffer at pH 9 assessed as residual rate incubated for 2 weeks by HPLC analysis; assay type: physicochemical; conditions: read-out: Stability

T4 sequence (P39900 whole entry): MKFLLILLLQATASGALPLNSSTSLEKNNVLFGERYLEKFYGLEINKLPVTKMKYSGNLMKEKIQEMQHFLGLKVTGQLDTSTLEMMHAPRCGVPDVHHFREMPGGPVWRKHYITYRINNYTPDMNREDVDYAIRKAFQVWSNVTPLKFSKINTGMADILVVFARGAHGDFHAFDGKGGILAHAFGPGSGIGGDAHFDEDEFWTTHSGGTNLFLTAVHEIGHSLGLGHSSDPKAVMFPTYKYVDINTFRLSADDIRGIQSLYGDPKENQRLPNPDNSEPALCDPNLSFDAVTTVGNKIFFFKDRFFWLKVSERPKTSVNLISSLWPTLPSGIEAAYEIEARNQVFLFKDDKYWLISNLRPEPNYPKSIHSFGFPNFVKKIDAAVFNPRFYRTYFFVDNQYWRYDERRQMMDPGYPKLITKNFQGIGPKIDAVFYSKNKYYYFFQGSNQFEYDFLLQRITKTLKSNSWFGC
T1 sequence (P08253 whole entry, looked up, other chains not shown): as the sequence (P08253 whole entry) above
Chain of Matrix metalloproteinase-9 (P14780 whole entry): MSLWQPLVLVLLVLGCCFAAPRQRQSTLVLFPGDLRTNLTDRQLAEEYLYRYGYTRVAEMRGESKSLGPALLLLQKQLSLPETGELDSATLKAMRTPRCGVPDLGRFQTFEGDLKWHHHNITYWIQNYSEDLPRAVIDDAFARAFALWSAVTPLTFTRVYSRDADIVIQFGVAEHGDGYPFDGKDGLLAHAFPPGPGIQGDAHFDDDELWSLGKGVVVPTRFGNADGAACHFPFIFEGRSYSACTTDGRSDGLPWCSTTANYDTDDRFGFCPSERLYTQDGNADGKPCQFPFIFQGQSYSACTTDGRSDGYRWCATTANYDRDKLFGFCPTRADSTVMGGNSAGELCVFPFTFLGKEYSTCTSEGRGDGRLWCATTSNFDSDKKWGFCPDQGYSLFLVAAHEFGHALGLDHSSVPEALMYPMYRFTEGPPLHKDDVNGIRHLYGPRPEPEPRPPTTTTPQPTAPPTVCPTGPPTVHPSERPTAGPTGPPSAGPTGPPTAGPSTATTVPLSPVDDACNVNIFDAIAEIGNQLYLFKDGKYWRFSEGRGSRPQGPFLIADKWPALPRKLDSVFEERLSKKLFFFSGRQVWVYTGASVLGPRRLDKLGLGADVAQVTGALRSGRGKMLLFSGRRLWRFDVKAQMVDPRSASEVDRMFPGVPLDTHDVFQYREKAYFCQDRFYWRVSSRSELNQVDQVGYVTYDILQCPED
Chain of Neutrophil collagenase (P22894 whole entry): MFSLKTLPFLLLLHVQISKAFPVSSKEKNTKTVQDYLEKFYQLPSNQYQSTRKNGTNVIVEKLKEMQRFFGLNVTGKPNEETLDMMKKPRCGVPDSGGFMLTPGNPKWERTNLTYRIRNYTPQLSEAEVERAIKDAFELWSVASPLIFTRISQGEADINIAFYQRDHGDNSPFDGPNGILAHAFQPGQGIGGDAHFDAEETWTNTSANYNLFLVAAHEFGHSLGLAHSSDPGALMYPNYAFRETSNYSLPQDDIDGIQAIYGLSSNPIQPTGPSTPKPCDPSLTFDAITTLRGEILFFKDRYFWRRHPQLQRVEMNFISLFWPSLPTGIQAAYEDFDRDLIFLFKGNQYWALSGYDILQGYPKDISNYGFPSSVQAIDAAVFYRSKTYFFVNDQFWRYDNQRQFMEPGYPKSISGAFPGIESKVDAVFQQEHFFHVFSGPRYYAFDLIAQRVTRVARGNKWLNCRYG
Chain of MMP-1/MMP-2 (Homo sapiens) (P08253 whole entry, looked up, one chain of several): as the sequence (P08253 whole entry) above
Chain of Stromelysin-1 (P08254 whole entry): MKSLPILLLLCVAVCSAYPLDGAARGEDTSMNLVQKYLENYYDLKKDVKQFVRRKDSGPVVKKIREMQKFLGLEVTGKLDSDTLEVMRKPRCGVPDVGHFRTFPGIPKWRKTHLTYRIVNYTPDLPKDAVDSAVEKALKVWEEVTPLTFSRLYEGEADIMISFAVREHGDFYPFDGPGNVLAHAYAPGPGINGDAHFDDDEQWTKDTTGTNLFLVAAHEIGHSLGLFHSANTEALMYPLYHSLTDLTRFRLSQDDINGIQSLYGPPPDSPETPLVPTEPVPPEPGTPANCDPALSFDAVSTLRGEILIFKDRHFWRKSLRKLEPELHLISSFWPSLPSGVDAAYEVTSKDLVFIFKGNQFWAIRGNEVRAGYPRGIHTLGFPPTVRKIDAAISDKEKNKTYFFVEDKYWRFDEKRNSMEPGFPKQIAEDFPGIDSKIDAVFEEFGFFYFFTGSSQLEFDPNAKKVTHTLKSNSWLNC

In the case of CC(C)C[C@H](NC(=O)[C@@H]1C[C@H](N)CN1C(=O)CC[C@@H](NS(=O)(=O)c1ccc(NC(=O)c2ccc(C(N)=O)cc2)cc1)C(=O)O)C(=O)N(C)[C@@H](CCC(=O)O)C(=O)NCCCCC(N)=O, the Ki (Collagenase 3) is reported as 110 nM, the Ratio IC50 [1] is reported as 1100 and the Ratio Ki [2] is reported as 3200. It also gave a Ratio Ki [3] of 56000, a Ratio Ki (Homo sapiens [4]) of 53000 and a Ratio IC50 (Homo sapiens [5]) of 1100. It also gave an IC50 (Neutrophil collagenase) of 1800 nM, a Ki [6] of 68 nM and a Ki [7] of 0.034 nM. It also gave a Ratio Ki (Homo sapiens [8]) of 5000, a remaining at 336 h [9] of 98.7% and a Ratio Ki [10] of 2000. For the same compound, the Ki (Matrilysin) was 150000 nM, the IC50 [11] was 250 nM and the T1/2 [12] was 4.42 h. It also gave a Ratio Ki (Homo sapiens [13]) of 140000, a Ratio Ki [14] of 7.9e+06 and an IC50 [15] of 0.22 nM. For the same compound, the IC50 (Interstitial collagenase) was 270000 nM, the Ki [16] was 1900 nM and the remaining at 336 h [17] was 99%. The remaining at 4 h [18] was 93.1%, the Ki (Stromelysin-1) was 4900 nM and the IC50 [19] was 0.034 nM. The Ki [20] was 170 nM and the remaining at 336 h [21] was 98.1%.
